# Test results as given in patent US10314785B2, “Sterile pharmaceutical compositions” (NORTON HEALTHCARE LTD, priority 2004, dated 2019).
# Legend:
# [1] = Water solubility of budesonide at sterilizing temperatures; assay type: physicochemical
# Protocol: A balance is required between the solubility of the glucocorticosteroid and the amount of the glucocorticosteroid used per unit of solvent such that at least 50% of the glucocorticosteroid is suspended in the solvent. For example, for budesonide, at the sterilizing temperatures used herein the water solubility is about 7 mg/ml. Therefore, using 15 mg of budesonide per […] provides 53% of budesonide as a suspension. Preferably at least 60% of the glucocorticosteroid is suspended in the solvent although this value could be at least 70% or at least 80%.
# [2] = Heat sterilization of beclomethasone dipropionate concentrates: content, impurities, particle size; assay type: physicochemical; details: 121/30, data not shown
# Protocol: Determination of impurity levels and particle size were also determined as outlined above.
# [3] = suspensions sterilized by a wet steam process; cited from earlier work
fraction of budesonide suspended ([1]; using 15 mg of budesonide per 1 mg water) [%],"solubility ([1]; water, at the sterilizing temperatures used herein) [µg/mL]",change in beclomethasone content upon heating in the autoclave [2],change in particle size distribution on autoclaving [2],Compound,increase in impurities upon heating in the autoclave [2],decrease in active ingredient content [3],increase in degradation products [3]
53,~7000,,,CCCC1O[C@@H]2C[C@H]3[C@@H]4CCC5=CC(=O)C=C[C@]5(C)[C@H]4[C@@H](O)C[C@]3(C)[C@]2(C(=O)CO)O1 (stereo partly shown) [budesonide],,,
,,no significant change,no significant change,"CCC(=O)OCC(=O)[C@@]1(OC(=O)CC)[C@@H](C)C[C@H]2[C@@H]3CCC4=CC(=O)C=C[C@]4(C)[C@@]3(Cl)[C@@H](O)C[C@@]21C [beclomethasone, beclomethasone dipropionate]",no significant change in beclomethasone content or increase in impurities,8-9%,10-11%
